Source: US6451800B1, “Phenylpiperazine derivatives as integrin αvβ3 antagonists” (Meiji Seika Kaisha, Ltd., priority 1998, dated 2002)
Values belong to the compound of their own block, whether it stands above or below them.

Legend:
Oral absorption in rats = assay type: in vivo; conditions: data not shown
From the text: Therefore, any of the compounds, wherein R^9 represents an alkyl group or a hydrogen atom, can be used in the treatment of the above diseases.

GP IIb/IIIa = GP IIb/IIIa (Homo sapiens, UniProt P05106+P08514); test: GP IIb/IIIa antagonistic activity (method of Pharmacological Test 2 in WO 94/21599); assay type: binding
Procedure: (§1) GP IIb/IIIa Antagonistic Activity and Human Platelet Aggregation Inhibitory Activity
GP IIb/IIIa antagonistic activity was measured for the compounds according to the present invention. The measurement of the GP IIb/IIIa antagonistic activity was carried out according to the method described in Pharmacological Test 2 in WO 94/21599.

[1] = molecular target: T1, integrin α5β1 (fibronectin receptor purified from the human placenta) (Homo sapiens, UniProt P05556+P08648); test: α5β1 binding assay (fibronectin-fibronectin receptor binding assay); conditions: read-out: IC50, integrin α5β1 antagonistic activity (fibronectin-fibronectin receptor binding)
T1 construct: a fibronectin receptor (protein content: 52.1 μg/ml) purified from the human placenta; from tissue; host or cells: human placenta
Procedure: The plate was then allowed to stand at 4° C. for one day, washed twice with TBS (200 μl/well), and then subjected to blocking with TBS (150 μl/well) containing 3% skim milk (DIFCO) at 4° C. overnight. […] After the completion of the reaction, the wells were washed five times with TBS-Tween. A solution prepared by diluting a peroxidase-labeled fibronectin antibody (CAPPEL) 500 times with TBS-Tween was added in an amount of 50 μl per well, and a reaction was allowed to proceed at room temperature for 1.5 hr. After washing five times with TBS-Tween (200 μl/well), ABTS (SIGMA) adjusted to 1 mg/ml by the addition of a ten-fold diluted POD-buffer (ZYMED) was added in an amount of 50 μl/well, and a reaction was allowed to proceed for 5 to 10 min. A 0.1 M citric acid buffer (pH 4.3) containing 0.05% NaN3 was added in an amount of 50 μl/well to stop the reaction, followed by the measurement of the absorbance at 415 nm with a microplate reader (MTP 32, Corona Electric) (reference: 675 nm). […] The inhibition was calculated by the following equation: [formula]
(§2) IC50 was determined from a primary regression line of the logarithm of each concentration of the test compound and the logarithm of (100−inhibition)/inhibition.

[2] = molecular target: T2, integrin αvβ3 (vitronectin receptor purified from the human placenta) (Homo sapiens, UniProt P05106+P06756); test: αvβ3 binding assay (vitronectin-vitronectin receptor binding assay); conditions: for IC50: vitronectin receptor from human placenta, read-out: IC50, inhibition of binding between vitronectin and vitronectin receptor (αvβ3 binding inhibitory activity)
T2 construct: a vitronectin receptor (protein content: 118 μg/ml) purified from the human placenta; from tissue; host or cells: human placenta
Procedure: Integrin αvβ3 antagonistic activity was measured for the compounds according to the present invention in a vitronectin-vitronectin receptor binding assay system in accordance with the method of Kouns et al. (W. C. Kouns, D. Kirchhofer, P. Hadvary, A. Edenhofer, T. Weller, G. Pfenninger, H. R. Baumgartner, L. K. Jennings and B. Steiner, Blood, 8, 2539-2547 (1992)).
Specifically, a vitronectin receptor (protein content: 118 μg/ml) purified from the human placenta in accordance with the method of Pytela et al. (R. Pytela, M. D. Pierschbacher, S. Argraves, S. Suzuki, and E. Ruoslahti, Method in Enzymology, 144, 475-489 (1987)) was diluted 50 times with TBS (20 mM Tris-HCl, 150 mM NaCl, 1 mM CaCl2, 1 mM MgCl2, pH 7.4), and distributed and coated on wells (50 μl/well) of a plate (Maxisorp, Nunc, 96 well Immuno Plate). The plate was then allowed to stand at 4° C. for 1 day, washed twice with TBS (200 μl/well), and then subjected to blocking with TBS (150 μl/well) containing 1% bovine serum albumin (SIGMA) at 4° C. overnight. After washing twice with TBS (200 μl/well), 50 μl of vitronectin (CALBIOCHEM) adjusted to 0.2 μg/ml by the addition of TBS (TBS-Tween) containing 0.01% Tween-20 was mixed with 50 μl of each test compound adjusted to each concentration in wells, and a reaction was allowed to proceed at room temperature for 4 hr. After the completion of the reaction, the wells were washed five times with TBS-Tween. A solution prepared by diluting anti-vitronectin rabbit antiserum (CHEMICON) 500 times with TBS-Tween was added as a primary antibody in an amount of 50 μl per well, and a reaction was allowed to proceed at room temperature for 1.5 hr. After washing five times with 200 μl/well of TBS-Tween, a peroxidase (POD)-labeled anti-rabbit IgG antibody solution (CAPPEL) diluted 500 times with TBS-Tween was added as a secondary antibody in an amount of 50 μl/well, and a reaction was allowed to proceed at room temperature for 1.5 hr. After washing five times with TBS-Tween (200 μl /well), ABTS (2,2′-azino-bis(3-ethylbenzthiazoline-6-sulfonic acid), SIGMA) was adjusted to 1 mg/ml by the addition of a ten-fold diluted POD-buffer (ZYMED), and added in an amount of 50 μl/well, and a reaction was allowed to proceed for 5 to 10 min. A 0.1 M citric acid buffer (pH 4.3) containing 0.05% NaN3 was added in an amount of 50 μl/well to stop the reaction, followed by the measurement of the absorbance at 415 nm with a microplate reader (MTP 32, Corona Electric) (reference: 675 nm). The total binding was defined as the absorbance after a reaction using 50 μl of TBS-Tween instead of the test compound, and the non-specific binding (100% inhibition) was defined as the absorbance after a reaction using 50 μl of TBS-Tween containing 2×10^−3 M RGDS. The inhibition was calculated by the following equation: [formula]
as §2

[3] = test system: human platelet aggregation; test: Human platelet aggregation inhibitory activity (method of Pharmacological Test 1 in WO 94/21599); assay type: cell-based; conditions: for IC50: read-out: IC50, human platelet aggregation inhibition
Procedure: as §1
Human platelet aggregation inhibitory activity was measured for the compounds according to the present invention. The measurement of the human platelet aggregation activity was carried out according to the method described in Pharmacological Test 1 in WO 94/21599.

T2 sequence (P06756 31-889 limits assumed): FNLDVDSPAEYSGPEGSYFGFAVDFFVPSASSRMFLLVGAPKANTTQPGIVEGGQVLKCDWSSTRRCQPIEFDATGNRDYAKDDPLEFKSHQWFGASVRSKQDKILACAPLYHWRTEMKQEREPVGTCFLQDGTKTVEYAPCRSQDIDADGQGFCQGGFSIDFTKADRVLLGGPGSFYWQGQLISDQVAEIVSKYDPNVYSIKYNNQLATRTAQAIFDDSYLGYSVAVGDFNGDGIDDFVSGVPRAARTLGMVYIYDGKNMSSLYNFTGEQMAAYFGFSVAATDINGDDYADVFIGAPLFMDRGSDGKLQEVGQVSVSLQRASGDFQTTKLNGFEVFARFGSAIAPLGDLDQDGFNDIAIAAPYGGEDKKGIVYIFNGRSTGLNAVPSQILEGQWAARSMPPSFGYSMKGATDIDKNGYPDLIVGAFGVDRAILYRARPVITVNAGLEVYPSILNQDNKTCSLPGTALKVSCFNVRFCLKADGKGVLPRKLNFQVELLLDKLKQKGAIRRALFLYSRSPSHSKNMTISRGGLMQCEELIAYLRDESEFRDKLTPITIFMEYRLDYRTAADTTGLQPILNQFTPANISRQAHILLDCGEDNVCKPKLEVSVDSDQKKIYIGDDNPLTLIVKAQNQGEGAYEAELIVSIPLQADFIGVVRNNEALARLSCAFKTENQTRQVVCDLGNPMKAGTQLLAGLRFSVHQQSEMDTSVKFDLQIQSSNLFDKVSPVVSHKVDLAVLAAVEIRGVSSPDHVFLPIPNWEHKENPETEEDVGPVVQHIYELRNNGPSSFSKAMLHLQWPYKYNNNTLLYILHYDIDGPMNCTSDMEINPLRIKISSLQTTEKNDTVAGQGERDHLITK
T2 sequence (P06756 891-1048 partner limits assumed): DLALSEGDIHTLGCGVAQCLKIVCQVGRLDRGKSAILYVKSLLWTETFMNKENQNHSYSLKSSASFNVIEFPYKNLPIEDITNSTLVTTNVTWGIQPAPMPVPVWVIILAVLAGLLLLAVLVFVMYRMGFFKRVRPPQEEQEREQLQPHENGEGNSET
T2 sequence (P05106 27-788): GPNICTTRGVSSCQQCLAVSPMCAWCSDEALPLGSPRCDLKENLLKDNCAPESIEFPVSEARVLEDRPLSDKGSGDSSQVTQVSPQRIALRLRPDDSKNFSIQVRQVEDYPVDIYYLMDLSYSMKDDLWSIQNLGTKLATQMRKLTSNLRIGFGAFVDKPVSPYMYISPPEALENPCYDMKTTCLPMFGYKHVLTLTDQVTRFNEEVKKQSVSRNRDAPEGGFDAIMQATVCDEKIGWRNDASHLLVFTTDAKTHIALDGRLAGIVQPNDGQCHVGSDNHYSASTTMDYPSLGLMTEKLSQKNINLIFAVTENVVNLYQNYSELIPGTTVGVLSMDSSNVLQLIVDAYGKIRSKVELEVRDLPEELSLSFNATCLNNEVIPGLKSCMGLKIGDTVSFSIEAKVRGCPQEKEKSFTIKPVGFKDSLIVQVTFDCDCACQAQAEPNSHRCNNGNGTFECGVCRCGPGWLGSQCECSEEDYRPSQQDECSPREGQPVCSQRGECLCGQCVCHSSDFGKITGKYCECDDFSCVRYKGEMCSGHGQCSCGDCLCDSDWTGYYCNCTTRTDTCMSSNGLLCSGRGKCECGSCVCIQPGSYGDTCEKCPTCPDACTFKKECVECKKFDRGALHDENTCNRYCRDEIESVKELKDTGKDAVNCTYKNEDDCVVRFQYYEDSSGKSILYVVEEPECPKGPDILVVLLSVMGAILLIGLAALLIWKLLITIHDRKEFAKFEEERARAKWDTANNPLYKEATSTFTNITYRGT
Chain of GP IIb/IIIa (P08514 32-887 limits assumed): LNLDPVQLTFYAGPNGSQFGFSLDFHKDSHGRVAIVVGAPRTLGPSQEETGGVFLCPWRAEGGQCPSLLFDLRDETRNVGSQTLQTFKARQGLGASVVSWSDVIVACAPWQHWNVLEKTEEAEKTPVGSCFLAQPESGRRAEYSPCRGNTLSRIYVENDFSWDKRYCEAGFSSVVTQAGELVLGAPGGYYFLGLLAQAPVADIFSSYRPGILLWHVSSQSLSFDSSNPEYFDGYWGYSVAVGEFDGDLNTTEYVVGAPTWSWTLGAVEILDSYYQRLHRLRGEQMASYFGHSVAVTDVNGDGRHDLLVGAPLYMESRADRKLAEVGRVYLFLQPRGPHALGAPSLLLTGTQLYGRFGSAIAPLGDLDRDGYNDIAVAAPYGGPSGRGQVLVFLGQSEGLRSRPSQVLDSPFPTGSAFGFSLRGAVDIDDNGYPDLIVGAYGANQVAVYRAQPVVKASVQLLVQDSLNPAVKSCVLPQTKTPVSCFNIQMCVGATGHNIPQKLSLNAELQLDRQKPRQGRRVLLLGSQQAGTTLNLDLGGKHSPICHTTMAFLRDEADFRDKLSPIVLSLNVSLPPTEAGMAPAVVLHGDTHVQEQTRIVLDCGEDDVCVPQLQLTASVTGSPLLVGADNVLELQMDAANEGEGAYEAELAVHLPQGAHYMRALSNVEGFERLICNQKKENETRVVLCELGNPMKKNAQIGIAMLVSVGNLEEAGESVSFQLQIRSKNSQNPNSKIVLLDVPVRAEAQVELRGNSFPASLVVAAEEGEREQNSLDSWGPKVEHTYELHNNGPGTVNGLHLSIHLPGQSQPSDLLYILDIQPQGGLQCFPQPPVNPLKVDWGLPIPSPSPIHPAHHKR
Chain of GP IIb/IIIa (P08514 891-1039 partner limits assumed): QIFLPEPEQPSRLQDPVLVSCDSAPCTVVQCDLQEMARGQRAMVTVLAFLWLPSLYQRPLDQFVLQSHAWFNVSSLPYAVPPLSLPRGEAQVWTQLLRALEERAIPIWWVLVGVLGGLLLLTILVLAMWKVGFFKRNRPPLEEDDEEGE
Chain of GP IIb/IIIa (P05106 27-788): as the sequence (P05106 27-788) above
T1 sequence (P08648 42-894 limits assumed): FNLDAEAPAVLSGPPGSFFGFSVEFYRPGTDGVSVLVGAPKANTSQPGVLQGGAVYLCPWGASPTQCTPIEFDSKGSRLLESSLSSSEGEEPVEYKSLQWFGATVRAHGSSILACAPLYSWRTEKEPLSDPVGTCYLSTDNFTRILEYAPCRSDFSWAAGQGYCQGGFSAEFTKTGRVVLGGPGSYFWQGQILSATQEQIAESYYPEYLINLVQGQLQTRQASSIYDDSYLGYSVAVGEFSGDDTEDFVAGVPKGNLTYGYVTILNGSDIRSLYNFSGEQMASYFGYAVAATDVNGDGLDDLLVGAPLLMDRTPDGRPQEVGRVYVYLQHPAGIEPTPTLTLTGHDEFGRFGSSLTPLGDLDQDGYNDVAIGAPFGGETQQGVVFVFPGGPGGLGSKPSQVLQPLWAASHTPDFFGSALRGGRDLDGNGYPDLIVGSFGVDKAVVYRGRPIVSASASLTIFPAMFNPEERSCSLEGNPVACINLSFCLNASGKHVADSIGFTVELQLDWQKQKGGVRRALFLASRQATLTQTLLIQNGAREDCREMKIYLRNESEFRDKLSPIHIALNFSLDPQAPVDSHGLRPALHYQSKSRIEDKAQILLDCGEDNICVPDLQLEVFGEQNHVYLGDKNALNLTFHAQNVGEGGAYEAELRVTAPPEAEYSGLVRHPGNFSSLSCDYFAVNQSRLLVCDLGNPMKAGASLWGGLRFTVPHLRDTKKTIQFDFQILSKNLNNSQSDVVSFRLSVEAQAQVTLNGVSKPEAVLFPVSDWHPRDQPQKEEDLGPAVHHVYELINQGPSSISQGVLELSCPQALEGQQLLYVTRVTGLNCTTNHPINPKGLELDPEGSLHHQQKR
T1 sequence (P08648 895-1049 partner limits assumed): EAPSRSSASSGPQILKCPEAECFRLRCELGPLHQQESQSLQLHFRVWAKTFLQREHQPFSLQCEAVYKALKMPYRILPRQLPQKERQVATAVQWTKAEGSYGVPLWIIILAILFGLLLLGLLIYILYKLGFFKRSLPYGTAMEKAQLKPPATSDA
T1 sequence (P05556 21-798): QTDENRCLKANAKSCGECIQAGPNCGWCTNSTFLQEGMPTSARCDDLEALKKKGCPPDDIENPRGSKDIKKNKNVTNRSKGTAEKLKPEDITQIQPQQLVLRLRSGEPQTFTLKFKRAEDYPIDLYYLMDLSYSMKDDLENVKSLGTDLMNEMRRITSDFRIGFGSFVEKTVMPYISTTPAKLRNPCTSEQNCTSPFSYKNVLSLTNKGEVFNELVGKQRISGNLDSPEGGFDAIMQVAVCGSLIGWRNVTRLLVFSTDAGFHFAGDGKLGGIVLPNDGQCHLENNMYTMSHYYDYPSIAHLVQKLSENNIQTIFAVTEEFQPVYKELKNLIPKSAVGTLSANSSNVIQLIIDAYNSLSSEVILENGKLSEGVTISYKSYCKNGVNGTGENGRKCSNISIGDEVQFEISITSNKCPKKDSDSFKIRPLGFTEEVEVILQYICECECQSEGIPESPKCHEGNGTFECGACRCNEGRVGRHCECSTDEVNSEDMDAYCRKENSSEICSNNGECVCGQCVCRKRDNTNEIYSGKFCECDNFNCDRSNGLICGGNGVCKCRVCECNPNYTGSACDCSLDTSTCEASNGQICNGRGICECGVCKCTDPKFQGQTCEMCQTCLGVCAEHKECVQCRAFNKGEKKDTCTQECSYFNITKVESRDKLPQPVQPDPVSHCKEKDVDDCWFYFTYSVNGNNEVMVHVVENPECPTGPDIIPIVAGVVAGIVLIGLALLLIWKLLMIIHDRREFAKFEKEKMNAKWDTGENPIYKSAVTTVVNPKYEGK

SMILES: O=C(NC[C@H](NS(=O)(=O)c1ccccc1)C(=O)O)c1ccc(N2CCCN(c3ncccn3)CC2)cc1 [Example 5, (2S)-Benzenesulfonylamino-3-[4-{4-(pyrimidin-2-yl) -[1,4]diazepan-1-yl}-benzoylamino]-propionic acid]
- oral absorption (Oral absorption in rats): excellent oral absorption

SMILES: CC1CN(c2ccc(C(=O)NC[C@H](NS(=O)(=O)c3ccccc3)C(=O)O)cc2)CCN1C1=NCCCN1 (stereo partly drawn) [Example 9, (2S)-Benzenesulfonylamino-3-[4-{3-methyl-4-(1,4,5,6-tetrahydropyrimidin-2-yl)-piperazin-1-yl}-benzoylamino]-propionic acid]
- human platelet aggregation inhibition (in words) [3]: very strongly inhibited human platelet aggregation
- IC50 [3]: 50 nM

SMILES: Cc1cc(C)c(S(=O)(=O)N[C@@H](CNC(=O)c2ccc(N3CCN(c4ncccn4)CC3)c(F)c2)C(=O)O)c(C)c1 [Example 82, 3-[3-Fluoro-4-{4-(pyrimidin-2-yl)-piperazin-1-yl}-benzoylamino]-(2S)-(2,4,6-trimethyl-benzenesulfonylamino)-propionic Acid]
- GP IIb/IIIa antagonistic activity (in words) (GP IIb/IIIa): extremely high GP IIb/IIIa antagonistic activity

SMILES: C[C@@H]1CN(c2ccc(C(=O)NC[C@H](NS(=O)(=O)c3ccccc3)C(=O)O)cc2)CCN1C1=NCCCN1 [Example 12, (2S)-Benzenesulfonylamino-3-[4-{(3R)-methyl-4-(1,4,5,6-tetrahydropyrimidin-2-yl)-piperazin-1-yl}-benzoylamino]-propionic acid]
- human platelet aggregation inhibition (in words) [3]: very strongly inhibited human platelet aggregation

SMILES: O=C(NC[C@H](NS(=O)(=O)c1ccccc1)C(=O)O)c1ccc(N2CCCN(C3=NCCCN3)CC2)cc1 [Example 6, (2S)-Benzenesulfonylamino-3-[4-{4-(1,4,5,6-tetrahydropyrimidin-2-yl)-[1,4]diazepan-1-yl}-benzoylamino]-propionic acid]
- human platelet aggregation inhibition (in words) [3]: very strongly inhibited human platelet aggregation
- IC50 [3]: 50 nM

Further lines, with some results ahead:

- IC50 (GP IIb/IIIa): ≤ 0.2 nM
SMILES: O=C(NC[C@H](NS(=O)(=O)c1ccccc1)C(=O)O)c1ccc(N2CCN(C3=NCCCN3)CC2)cc1Cl [Example 62, (2S)-Benzenesulfonylamino-3-[2-chloro-4-{4-(1,4,5,6-tetrahydropyrimidin-2-yl)-piperazin-1-yl}-benzoylamino]-propionic Acid]

- IC50 [1]: 63000 nM
- IC50 [2]: 3.5 nM
- IC50 (GP IIb/IIIa): ≤ 0.2 nM
SMILES: O=C(NC[C@H](NS(=O)(=O)c1ccccc1)C(=O)O)c1ccc(N2CCN(C3=NCCCN3)CC2)c(Cl)c1 [Example 59, (2S)-Benzenesulfonylamino-3-[3-chloro-4-{4-(1,4,5,6-tetrahydropyrimidin-2-yl)-piperazin-1-yl}-benzoylamino]-propionic Acid]

- IC50 [1]: 13000 nM
- IC50 [2]: 5.8 nM
SMILES: Cc1cc(C)c(S(=O)(=O)N[C@@H](CNC(=O)c2ccc(N3CCN(C4=NCCCN4)CC3)c(F)c2)C(=O)O)c(C)c1 [Example 83, 3-[3-Fluoro-4-{4-(1,4,5,6-tetrahydropyrimidin-2-yl)-piperazin-1-yl}-benzoylamino]-(2S)-(2,4,6-trimethyl-benzenesulfonylamino)-propionic Acid]

- IC50 (GP IIb/IIIa): ≤ 0.2 nM
SMILES: O=C(NC[C@H](NS(=O)(=O)c1ccccc1)C(=O)O)c1ccc(N2CCN(C3=NCCCN3)CC2)cc1F [Example 56, (2S)-Benzenesulfonylamino-3-[2-fluoro-4-{4-(1,4,5,6-tetrahydropyrimidin-2-yl)-piperazin-1-yl}-benzoylamino]-propionic Acid]

- IC50 [3]: 38 nM
SMILES: N=C(N)N1CCN(c2ccc(C(=O)NC[C@H](NS(=O)(=O)c3ccccc3)C(=O)O)cc2)CC1 [Example 34, (2S)-Benzenesulfonylamino-3-[4-{4-(amidino)-piperazin-1-yl}-benzoylamino]-propionic Acid]
- human platelet aggregation inhibition (in words) [3]: very strongly inhibited human platelet aggregation

- integrin αvβ3 antagonistic activity (in words) [2]: high integrin αvβ3 antagonistic activity
- IC50 (GP IIb/IIIa): ≤ 0.2 nM
SMILES: C[C@H]1CN(c2ccc(C(=O)NC[C@H](NS(=O)(=O)c3ccccc3)C(=O)O)cc2F)CCN1C1=NCCCN1 [Example 72, (2S)-Benzenesulfonylamino-3-[3-fluoro-4-{(3S)-methyl-4-(1,4,5,6-tetrahydropyrimidin-2-yl)-piperazin-1-yl}-benzoylamino]-propionic Acid]
- GP IIb/IIIa antagonistic activity (in words) (GP IIb/IIIa): extremely high GP IIb/IIIa antagonistic activity

- integrin αvβ3 antagonistic activity (in words) [2]: high integrin αvβ3 antagonistic activity
- IC50 [2]: 6.3 nM
SMILES: Nc1c(N2CCN(C3=NCCCN3)CC2)ccc(C(=O)NC[C@H](NS(=O)(=O)c2ccccc2)C(=O)O)c1Cl [Example 65, 3-[3-Amino-2-chloro-4-{4-(1,4,5,6-tetrahydropyrimidin-2-yl)-piperazin-1-yl}-benzoylamino]-(2S)-benzenesulfonylamino-propionic Acid]
- GP IIb/IIIa antagonistic activity (in words) (GP IIb/IIIa): extremely high GP IIb/IIIa antagonistic activity
